Measured values as given in the NIST ThermoML archive (doi:10.1016/j.jct.2017.10.004).
± gives the expanded uncertainty stated by the source.

Columns and labels:
[1] = 100 kPa, Liquid; for electrical conductivity: Alternating current cell with electrodes; for viscosity: Capillary tube (Ostwald / Ubbelohde) method; for mass density: Vibrating tube method
[2] = xn = mol fraction of the nth substance listed; settings: 100 kPa, Liquid, x2 = 0; for viscosity: Capillary tube (Ostwald / Ubbelohde) method; for mass density: Vibrating tube method

Cn1cc[n+](C)c1.O=S(=O)([N-]S(=O)(=O)C(F)(F)F)C(F)(F)F [1,3-dimethylimidazolium bis((trifluoromethyl)sulfonyl)amide]
[1]
Settings	electrical conductivity [S/m]	mass density [kg/m3]	viscosity [mPa·s]
298.15 K	0.774 ± 0.023	1575.42 ± 4.7	39.43 ± 1.6
303.15 K	0.915 ± 0.027	1570.25 ± 4.7	32.51 ± 1.3
308.15 K	1.06 ± 0.032	1565.01 ± 4.6	27.47 ± 1.1
313.15 K	1.2 ± 0.036	1559.73 ± 4.6	23.43 ± 0.95
318.15 K	1.35 ± 0.041	1554.49 ± 4.6	20.25 ± 0.82
323.15 K	1.51 ± 0.045	1549.34 ± 4.6	17.72 ± 0.72

O=C1CCCO1 [γ-butyrolactone] + Cn1cc[n+](C)c1.O=S(=O)([N-]S(=O)(=O)C(F)(F)F)C(F)(F)F
[2]
Settings	mass density [kg/m3]	viscosity [mPa·s]
298.15 K	1124.59 ± 4.6	1.71 ± 0.07
303.15 K	1119.68 ± 4.6	1.58 ± 0.06
308.15 K	1114.78 ± 4.6	1.47 ± 0.06
313.15 K	1109.87 ± 4.6	1.37 ± 0.06
318.15 K	1104.96 ± 4.6	1.28 ± 0.05
323.15 K	1100.05 ± 4.6	1.2 ± 0.05
